Consider one compound from patent publication US8076308B2, “Inhibition of autophagy genes in cancer chemotherapy” (British Columbia Cancer Agency, priority 2005, dated 2011).

Where two headings read alike, the source gives them in different places.

The subject of assay [1] is MCF7 human breast carcinoma cells. The following applies: literature (9), cited from earlier work.
Assay [2] relates to FM3A murine breast tumour cells. The following applies: literature (10); cited from earlier work.
Another assay concerns MCF-7 cells. The assay is described as follows: Detection of autophagy in tamoxifen treated MCF-7 cells (MDC, LC3-GFP, TEM). In kind it is cell-based, human. The text has this: Assays for autophagy and cell viability: We used flow cytometry based methods and microscopy to analyze autophagy levels. Cells were stained with MDC and LT-G and first analyzed manually by fluorescence microscopy and then by flow cytometry using a BD® flow cytometer (FACSVANTAGE™ SE, BD, TFL FACS Facility, BCCRC). […] To confirm that these two populations represent a functional difference in autophagy levels, RNA and protein from these FACS sorted cell were subjected to QRT-PCR for the MAP1LC3b gene, a commonly accepted marker for autophagy (16). In addition, the two populations were analyzed by Transmission Electron Microscopy (TEM) for the presence of autophagosomes (9).
FIG. 8. […] B. MCF-7 cells treated with 10^-6 M tamoxifen. In panels A, B, & D, cells are stained with the autolysosomal marker, MDC, detected as punctate staining (e.g. arrows in B).
In panels C and D, autophagy is detected by LC3-GFP localization. C. Punctate GFP-LC3 in transient transfected MCF7 cells treated with TAM. […] In panel E-H, TEM analyses indicate that autolysosomes are abundant in tamoxifen treated MCF7 cell sorted MDC (+) populations but not untreated MCF7 cells. Representative image of an untreated MCF7 cell is shown in (E) with a magnified view of the same cell in (G). Panels (F) and (H) show a cell treated with 5 uM tamoxifen (72 hrs).

`CC/C(=C(\c1ccccc1)c1ccc(OCCN(C)C)cc1)c1ccccc1` [Tamoxifen]: the Induction of autophagy entry in assay [1] (listed as tamoxifen) was “undergo autophagy”; in assay [1], “induce autophagy”; in assay [2] it was “induce autophagy”. The “Autolysosomes by TEM” value with MCF-7 cells (MCF7 cell treated with 5 uM tamoxifen (72 hrs), versus untreated) is given as “Numerous autolysosomes”. Besides, in the assay on MCF-7 cells (MCF-7 cells, 10^-6 M tamoxifen), the “Induction of autophagy (MDC punctate staining, LC3-GFP localization)” value was “induces autophagy”.
